Results on one compound are retold here after US6664309B2, “Antimicrobial hot melt adhesive” (priority 2000, dated 2003).

The test system of one data set is Gram Positive Bacteria. In words: Bacterial growth testing on inoculated agar plates, nonwoven with adhesive. The data set is classed as cell-based, gram-positive cocci similar to a Staphylococcus type. As to conditions: nonwoven with 3 gsm adhesive on inoculated agar plate, 35±2° C., 24 hours, observed for areas of non-growth. As to the method: A control mix, a mix with 0.5% triclosan, and a mix with 0.75% triclosan, were made of each product at 300° F. Each of the adhesives were applied at 300° F. to a standard 15.3 grams/m^2 (gsm) nonwoven substrate on the CT225 coater using a Nordson Control Weave applicator at 0.5 inch wide. The adhesive add-on level was 3 gsm. The pattern was fiberized. The nonwoven/adhesive was combined to release paper for easy removal for testing.
Ready-made petri plates of agar were used for this experiment. Inoculates were prepared using a barium sulfate standard for a turbidity of 150,000,000 bacteria/ml. The plates were inoculated using a sterile swab by streaking bacteria in three directions (to ensure complete coverage). A midline was drawn on each plate with a marker. To one side a piece of nonwoven (0.5×1.0″) was set on the inoculated plate. A sample of nonwoven with adhesive was positioned on the other half. The plates were incubated at 35±2° C. for 24 hours and observed for areas of non-growth. Photographs were taken using a digital camera. The following table outlines the samples tested and the results for each bacteria type.
Because triclosan is a broad-spectrum bacteriostat, it was thought that it would work on both the gram positive and the gram-negative strains. […]

For data set [1] the following is noted: cited from earlier work.

Consider `Oc1cc(Cl)ccc1Oc1ccc(Cl)cc1Cl` [triclosan, 2,4,4′-trichloro-2′-hydroxy-diphenyl-ether], for which, in the data set with Gram Positive Bacteria, the “Bacterial growth, Gram Positive Bacteria” value was “effective at inhibiting the growth”. Besides, the Solubility in water entry in data set [1] is listed as “practically insoluble in water”.
